We go through 22 molecules from patent US10155722B2, “Antitumor compound targeting IDH2 mutation and method of use thereof” (CHIA TAI TIANQING PHARMACEUTICAL GROUP CO., LTD., priority 2015, dated 2018).

For data set [1], the system named is glioma cells carrying the IDH1 mutant. The settings on record: cited from earlier work.
The subject of data set [2] is glioma cells. The settings on record: oral administration to mice with a transplanted tumour; cited from earlier work.
In data set [3] the test system is glioma cells. The settings on record: treatment of cell cultures; cited from earlier work.
Data set [4] concerns cells carrying the most common IDH1 mutant. The settings on record: cited from earlier work.
The nature of data set [5]: Pharmacokinetics parameters in rats after intragastric administration. It is filed as in vivo. The settings on record: for AUC(0-inf) / Cmax / Tmax / half-life: rat, po, male rats, intragastric, single dose 5 mg/kg, plasma; for half-life (in words) / metabolism in vivo (in words) / plasma concentration compared with AG-6780 at the same dose: rats, 5 mg/kg intragastric. As for the experimental part: The pharmacokinetic parameters of compounds of the present application were determined by using the following method.
Healthy male adult rats (7-9 weeks old) were used in this study. Each group of animals (3 male rats) was intragastrically administered once at a single dose of 5 mg/kg with 10% DMSO+70% PEG400+20% NS as adjuvants. The animals in the intragastric administration group were fasted overnight before this study. The fasting time period was from 10 hours before administration to 4 hours after administration.
Blood samples were taken at 0.25, 0.5, 1, 2, 4, 6, 8 and 24 h after administration. The animals were anesthetized with isoflurane using an animal anesthesia machine, and then 0.3 mL whole blood samples were taken from the fundus venous plexus. The blood samples were placed in heparin anticoagulant tubes, and centrifuged for 5 min at 4° C. and 4000 rpm. The resulting plasmas were transferred to centrifuge tubes, and stored at −80° C. until analysis.
Verified LC-MS/MS method was used to analyze the plasma samples. Plasma concentration-time data of animals were analyzed using WinNonlin (Professional Edition, version 6.3; Pharsight Company) software. The non-compartmental model was introduced for concentration analysis.

For data set [6], the system named is leukemia cells carrying the IDH2 mutant. The settings on record: cited from earlier work.
Data set [7] relates to cells carrying the most common IDH2 mutant. The settings on record: cited from earlier work.
Data set [8] addresses IDH2 (R172K, 40-end) (Homo sapiens (Human), UniProt P48735, R172K). The data set can be described thus: IDH2 (R172K, 40-end) inhibitory activity, NADPH depletion with diaphorase/resazurin readout. It is filed as biochemical. The settings on record: 80 nM enzyme, 40 μM NADPH, 4 mM α-KG. The procedure:
The inhibitory activity of a compound against IDH2 (R172K, 40-end) was determined by the decrease of a helper factor NADPH. The test compound was pre-incubated with an enzyme and NADPH, and then a reaction was initiated by the addition of a-KG, and performed for 120 minutes under a linear condition. Then, the reaction was terminated by the addition of diaphorase (lipoamide dehydrogenase) and the corresponding substrate resazurin. Diaphorase terminated the IDH2m reaction by decreasing the available helper factor NADPH, which oxidized NADPH to NADP, and reduced resazurin to highly fluorescent resorufin. The amount of remaining helper factor NADPH after a specific reaction time was quantified via an easily detectable fluorophore. Specifically, 2.5 μl of a 3-fold gradient diluted test compound was added to a 384-well plate, and then 5 μl of a reaction buffer (20 mM Tris-HCl, PH7.5; 150 mM NaCl; 10 mM MgC12; 10 mM MnCl2; 0.4 mg/ml BSA and 2 mM DTT) containing 80 nM IDH2 (R172K, 40-end) and 40 μM NADPH was added. Then, the resulting test mixture was incubated for 120 minutes at a temperature of 23° C., and then 2.5 μl of the reaction buffer containing 4 mM α-KG was added to initiate the reaction. After incubating for 120 minutes at room temperature, 5 μl of a termination mixture (0.4 U/ml diaphorase and 40 μM resazurin) prepared with the reaction buffer was added to convert resazurin to resorufin to determine the remaining NADPH. After incubating for 10 minutes at a temperature of 23° C., a fluorescence value was determined through Flexstation 3 at Ex535/Em595.
A general note: Resazurin is reduced to fluorescent resorufin, in cell work by metabolically active cells.

SMILES strings stand for the structures. pIC50: −log10 of the molar value. Where two headings read alike, the source gives them in different places.

For orientation: AUC(0-inf) means total exposure, with the tail of the curve extrapolated. As usually defined, the Cmax is the highest concentration seen after dosing. One may read the Tmax as the time from dosing to the highest level. As a reminder, the half-life is the time needed for the level to fall by half in the phase considered. Low values mean fast loss, high ones slow loss. A word on the pIC50: it is −log10 of the IC50, conventionally taken in molar units.

IDH2 (R172K, 40-end), sequence (P48735 40-452 R172K): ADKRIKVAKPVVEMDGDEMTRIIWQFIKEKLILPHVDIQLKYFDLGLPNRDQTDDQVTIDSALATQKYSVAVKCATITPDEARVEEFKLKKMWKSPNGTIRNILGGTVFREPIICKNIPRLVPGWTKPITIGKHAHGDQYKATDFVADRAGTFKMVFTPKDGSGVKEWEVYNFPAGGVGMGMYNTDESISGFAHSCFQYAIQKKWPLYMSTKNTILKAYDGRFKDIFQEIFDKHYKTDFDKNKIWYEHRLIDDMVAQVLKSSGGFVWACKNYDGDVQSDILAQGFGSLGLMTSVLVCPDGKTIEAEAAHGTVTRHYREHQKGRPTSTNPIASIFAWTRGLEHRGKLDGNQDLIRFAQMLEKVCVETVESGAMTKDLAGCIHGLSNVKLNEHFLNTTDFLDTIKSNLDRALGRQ

For the molecule `Cc1ccccc1C(C(=O)NC1CCCCC1)N(C(=O)Cn1ccnc1C)c1cccc(F)c1` (centres unmarked) [AGI-5198], the “expression of mature markers” value in data set [1] was “enhanced expression of mature markers”. Further, the “growth rate of glioma cells” value in data set [2] and in data set [3] was “inhibit the growth rate” each time. For the same molecule, in data set [4], the “generation of 2-HG” value was “inhibit the generation of 2-HG”.

As to `O=C(Nc1cccc(C(F)(F)F)c1)Nc1cc(S(=O)(=O)NC2CC2)ccc1-c1ccsc1` [AGI-6780, reference compound], in data set [5], the AUC(0-inf) was 559 ng·h/mL, the Cmax is 191 ng/mL, the Tmax amounted to 2.83 h and the half-life was 1.49 h. Further, the “expression of mature markers” value in data set [6] is recorded as “enhanced expression of mature markers”. For the same molecule, the “generation of 2-HG” value in data set [7] is recorded as “inhibit the generation of 2-HG”.

`O=C(Nc1cccc(C(F)(F)F)c1)Nc1cc(C(F)(F)C(=O)NC2CC2)ccc1-c1ccsc1` [Example 1, N-cyclopropyl-2,2-difluoro-2-(4-(thiophen-3-yl)-3-(3-(3-(trifluoromethyl)phenyl)ureido)phenyl)acetamide] had a pIC50 in data set [8] of 7.85.

In data set [8], `O=C(Nc1cccc(C(F)(F)F)c1)Nc1cc(C(F)(F)C(=O)NCC(F)(F)F)ccc1-c1ccsc1` [Example 2] had a pIC50 of 7.34. Compared with the last molecule, the pIC50 is 0.51 log units lower.

In data set [8], `CC(C)NC(=O)C(F)(F)c1ccc(-c2ccsc2)c(NC(=O)Nc2cccc(C(F)(F)F)c2)c1` [Example 3] showed a pIC50 of 7.21.

In data set [8], `N#CC1(NC(=O)C(F)(F)c2ccc(-c3ccsc3)c(NC(=O)Nc3cccc(C(F)(F)F)c3)c2)CC1` [Example 4, N-(1-cyanocyclopropyl)-2,2-difluoro-2-(4-(thiophen-3-yl)-3-(3-(3-(trifluoromethyl)phenyl)ureido)phenyl)acetamide] showed a pIC50 of 7.25.

Regarding `O=C(Nc1cccc(C(F)(F)F)c1)Nc1cc(C(F)(F)C(=O)NC2COC2)ccc1-c1ccsc1` [Example 5, 2,2-Difluoro-N-(oxetan-3-yl)-2-(4-(thiophen-3-yl)-3-(3-(3-(trifluoromethyl)phenyl)ureido)phenyl)acetamide], in data set [5], the AUC(0-inf) worked out at 858 ng·h/mL, the concentration peaked (Cmax) at 495 ng/mL, the Tmax is 0.42 h and the half-life was 4.37 h. In addition, in data set [5], the “half-life (in words)” value is “long half-life”, the “metabolism in vivo (in words)” value is given as “very good metabolism in vivo” and the “plasma concentration compared with AG-6780 at the same dose” value is reported as “higher plasma concentration”. The same molecule showed a pIC50 in data set [8] of 7.53.

As for `O=C(Nc1ccc(F)c(C(F)(F)F)c1)Nc1cc(C(F)(F)C(=O)NC2CC2)ccc1-c1ccsc1` [Example 10, N-cyclopropyl-2,2-difluoro-2-(3-(3-(4-fluoro-3-(trifluoromethyl)phenyl)ureido)-4-(thiophen-3-yl)phenyl)acetamide], the pIC50 in data set [8] was 6.41.

`O=C(Nc1cccc(C(F)(F)F)c1)Nc1cc(C(F)(F)C(=O)NC2CC2)ccc1-c1ccccc1` [Example 12, N-cyclopropyl-2,2-difluoro-2-(2-(3-(3-(trifluoromethyl)phenyl)ureido)-[1,1′-biphenyl]-4-yl)acetamide]: the pIC50 in data set [8] is 7.27. This pIC50 is 0.86 log units higher than that of the molecule before.

Regarding `Cc1cc(-c2ccc(C(F)(F)C(=O)NC3CC3)cc2NC(=O)Nc2cccc(C(F)(F)F)c2)n(C)n1` [Example 13, N-cyclopropyl-2-(4-(1,3-dimethyl-1H-pyrazol-5-yl)-3-(3-(3-(trifluoromethyl)phenyl)ureido)phenyl)-2,2-difluoroacetamide], the pIC50 in data set [8] is 6.98.

Turning to `CC(C(=O)NC1CC1)c1ccc(-c2ccsc2)c(NC(=O)Nc2cccc(C(F)(F)F)c2)c1` (centres unmarked) [Example 14, N-cyclopropyl-2-(4-(thiophen-3-yl)-3-(3-(3-(trifluoromethyl)phenyl)ureido)phenyl) propanamide], in data set [8], the pIC50 was 7.16. This pIC50 and that of the molecule before are within 0.2 log units of each other.

`CC(C)(C(=O)NC1CC1)c1ccc(-c2ccsc2)c(NC(=O)Nc2cccc(C(F)(F)F)c2)c1` [Example 15, N-cyclopropyl-2-methyl-2-(4-(thiophen-3-yl)-3-(3-(3-(trifluoromethyl)phenyl)ureido)phenyl)propanamide] gave a negative-log IC50 (pIC50) in data set [8] of 7.18.

`O=C(Cc1ccc(-c2ccsc2)c(NC(=O)Nc2cccc(C(F)(F)F)c2)c1)NC1CC1` [Example 16] showed a pIC50 in data set [8] of 7.12.

Consider `O=C(Nc1cccc(C(F)(F)F)c1)Nc1cc(C2(C(=O)NC3CC3)CC2)ccc1-c1ccsc1` [Example 17, N-cyclopropyl-1-(4-(thiophen-3-yl)-3-(3-(3-(trifluoromethyl)phenyl)ureido)phenyl) cyclopropanecarboxamide], for which, in data set [8], the pIC50 is 6.86. This pIC50 is 0.26 log units lower than that of the molecule before.

Consider `CC(C)(C(=O)NC1CC1)c1ccc(-c2ccsc2)c(NC(=O)Nc2ccc3c(c2)C(=O)NC3)c1` [Example 18, N-cyclopropyl-2-methyl-2-(3-(3-(3-oxoisoindol-5-yl)ureido)-4-(thiophen-3-yl)phenyl) propanamide], for which the pIC50 in data set [8] is 5.91. Compared with the last molecule, the pIC50 is 0.95 log units lower.

With `O=C(Nc1cccc(C(F)(F)F)c1)Nc1cc(C2(C(=O)NC3CC3)CCC2)ccc1-c1ccsc1` [Example 19, N-cyclopropyl-1-(4-(thiophen-3-yl)-3-(3-(3-(trifluoromethyl)phenyl)ureido)phenyl) cyclobutanecarboxamide], the pIC50 in data set [8] was 7.06.

In turn, `CCC(C(=O)NC1CC1)c1ccc(-c2ccsc2)c(NC(=O)Nc2cccc(C(F)(F)F)c2)c1` (centres unmarked) [Example 20, N-cyclopropyl-2-(4-(thiophen-3-yl)-3-(3-(3-(trifluoromethyl)phenyl)ureido)phenyl) butanamide] had a pIC50 in data set [8] of 6.44.

As to `NC(C(=O)NC1CC1)c1ccc(-c2ccsc2)c(NC(=O)Nc2cccc(C(F)(F)F)c2)c1` (centres unmarked) [Example 21, 2-Amino-N-cyclopropyl-2-(4-(thiophen-3-yl)-3-(3-(3-(trifluoromethyl)phenyl)ureido)phenyl)acetamide], the negative-log IC50 (pIC50) in data set [8] is 6.21.

On to `O=C(Nc1cccc(C(F)(F)F)c1)Nc1cc(C(=O)NC2CC2)ccc1-c1ccsc1` [Example 23, N-cyclopropyl-4-(thiophen-3-yl)-3-(3-(3-(trifluoromethyl)phenyl)ureido)benzamide], for which the pIC50 in data set [8] is 6.26.

Consider `CC(NC1CC1)c1ccc(-c2ccsc2)c(NC(=O)Nc2cccc(C(F)(F)F)c2)c1` (centres unmarked) [Example 24, 1-(5-(1-(cyclopropylamino)ethyl)-2-(thiophen-3-yl)phenyl)-3-(3-(trifluoromethyl)phenyl)urea], for which the pIC50 in data set [8] is 6.51.

For `CC(NC(=O)C1CC1)c1ccc(-c2ccsc2)c(NC(=O)Nc2cccc(C(F)(F)F)c2)c1` (centres unmarked) [Example 27, N-(1-(4-(thiophen-3-yl)-3-(3-(3-(trifluoromethyl)phenyl)ureido)phenyl)ethyl) cyclopropanecarboxamide], the pIC50 in data set [8] is 7.08.

Turning to `O=C(Nc1cccc(C(F)(F)F)c1)Nc1cc(CNC(=O)C2CC2)ccc1-c1ccsc1` [Example 28, N-(4-(thiophen-3-yl)-3-(3-(3-(trifluoromethyl)phenyl)ureido)benzyl) cyclopropanecarboxamide], in data set [5], the AUC(0-inf) is 844 ng·h/mL, the Cmax was 414 ng/mL, the time to peak (Tmax) was 0.33 h and the half-life was 2.34 h. Further, in data set [5], the “half-life (in words)” value was “long half-life”, the “metabolism in vivo (in words)” value is on record as “very good metabolism in vivo” and the “plasma concentration compared with AG-6780 at the same dose” value is recorded as “higher plasma concentration”. Besides, the pIC50 in data set [8] was 7.26.
